IC50 data for seven compounds are collected here from US8846935B2, “Indazoles” (GlaxoSmithKline LLC, priority 2010, dated 2014).

This assay deals with T1, EZH2 within the PRC2 complex (Homo sapiens, UniProt Q15910).
T1 construct: FLAG; made in house; host or cells: Sf9 cells
The experiment in a line: EZH2 methyltransferase scintillation proximity assay (SPA). Type of assay: biochemical. As to conditions: methyltransferase activity of EZH2 in human PRC2 complex, 3H-SAM, HeLa mononucleosomes. How it is done: Compounds contained herein were evaluated for their ability to inhibit the methyltransferase activity of EZH2 within the PRC2 complex. Human PRC2 complex was prepared by co-expressing each of the 5 member proteins (FLAG-EZH2, EED, SUZ12, RbAp48, AEBP2) in Sf9 cells followed by co-purification. Enzyme activity was measured in a scintillation proximity assay (SPA) where a tritiated methyl group is transferred from 3H-SAM to a lysine residue on Histone H3 of a mononucleosome, purified from HeLa cells. Mononucleosomes were captured on SPA beads and the resulting signal is read on a ViewLux plate reader.
Part A. Compound Preparation
• 1. Prepare 10 mM stock of compounds from solid in 100% DMSO. • 2. Set up an 11-point serial dilution (1:3 dilution, top concentration 10 mM) in 100% DMSO for each test compound in a 384 well plate leaving columns 6 and 18 for DMSO controls. • 3. Dispense 100 nL of compound from the dilution plate into reaction plates (Grenier Bio-One, 384-well, Cat#784075). Part B. Reagent Preparation Prepare the following solutions: • 1. 50 mM Tris-HCl, pH 8: Per 1 L of base buffer, combine 1 M Tris-HCl, pH 8 (50 mL) and distilled water (950 mL). • 2. 1× Assay Buffer: Per 10 mL of 1× Assay Buffer, combine 50 mM Tris-HCl, pH 8 (9958 uL), 1 M MgCl2 (20 uL), 2 M DTT (20 uL), and 10% Tween-20 (2 uL) to provide a final concentration of 50 mM Tris-HCl, pH 8, 2 mM MgCl2, 4 mM DTT, 0.002% Tween-20. • 3. 2× Enzyme Solution: Per 10 mL of 2× Enzyme Solution, combine 1× Assay Buffer and PRC2 complex to provide a final enzyme concentration of 10 nM. • 4. SPA Bead Suspension: Per 1 mL of SPA Bead Suspension, combine PS-PEI coated LEADSeeker beads (40 mg) and ddH2O (1 mL) to provide a final concentration of 40 mg/mL. • 5. 2× Substrate Solution: Per 10 mL of 2× Substrate Solution, combine 1× Assay Buffer (9728.55 uL), 800 ug/mL mononucleosomes (125 uL), 1 mM cold SAM (4 uL), and 7.02 uM 3H-SAM (142.45 uL; 0.55 mCi/mL) to provide a final concentration of 5 ug/mL nucleosomes, 0.2 uM cold SAM, and 0.05 uM 3H-SAM. • 6. 2.67× Quench/Bead Mixture: Per 10 mL of 2.67× Quench/Bead Mixture, combine ddH2O (9358 uL), 10 mM cold SAM (267 uL), 40 mg/mL Bead Suspension (375 uL) to provide a final concentration of 100 uM cold SAM and 0.5 mg/mL SPA beads. Part C. Assay Reaction in 384-well Grenier Bio-One Plates Compound Addition • 1. Dispense […] of 100× Compound to test wells (as noted above). • 2. Dispense […] of 100% DMSO to columns 6 & 18 for high and low controls, respectively. Assay • 1. Dispense 5 uL/well of 1× Assay Buffer to column 18 (low control reactions). • 2. Dispense 5 uL/well of 2× Enzyme Solution to columns 1-17, 19-24. • 3. Spin assay plates for ˜1 minute at 500 rpm. • 4. Stack the assay plates, covering the top plate. • 5. Incubate the compound/DMSO with the enzyme for 30 minutes at room temperature. • 6. Dispense 5 uL/well of 2× Substrate Solution to columns 1-24. • 7. Spin assay plates for ˜1 minute at 500 rpm. • 8. Stack the assay plates, covering the top plate. • 9. Incubate the assay plates at room temperature for 1 hour. Quench/Bead Addition • 1. Dispense 5 uL/well of the 3× Quench/Bead Mixture to columns 1-24. • 2. Seal the top of each assay plate with adhesive TopSeal. • 3. Spin assay plates for ˜1 minute at 500 rpm. • 4. Equilibrate the plates for >20 min. Read Plates • 1. Read the assay plates on the Viewlux Plate Reader utilizing the 613 nm emission filter with a 300 s read time. Reagent addition can be done manually or with automated liquid handler. *The final DMSO concentration in this assay is 1%. *The positive control is in column 6; negative control is in column 18. *Final starting concentration of compounds is 100 μM. Part D. Data Analysis
Percent inhibition was calculated relative to the DMSO control for each compound concentration and the resulting values were fit using standard IC50 fitting parameters within the ABASE data fitting software package.
On the technique in general: In a scintillation proximity assay essentially only radioactivity close to the scintillant gives light.

T1 sequence (Q15910 whole entry): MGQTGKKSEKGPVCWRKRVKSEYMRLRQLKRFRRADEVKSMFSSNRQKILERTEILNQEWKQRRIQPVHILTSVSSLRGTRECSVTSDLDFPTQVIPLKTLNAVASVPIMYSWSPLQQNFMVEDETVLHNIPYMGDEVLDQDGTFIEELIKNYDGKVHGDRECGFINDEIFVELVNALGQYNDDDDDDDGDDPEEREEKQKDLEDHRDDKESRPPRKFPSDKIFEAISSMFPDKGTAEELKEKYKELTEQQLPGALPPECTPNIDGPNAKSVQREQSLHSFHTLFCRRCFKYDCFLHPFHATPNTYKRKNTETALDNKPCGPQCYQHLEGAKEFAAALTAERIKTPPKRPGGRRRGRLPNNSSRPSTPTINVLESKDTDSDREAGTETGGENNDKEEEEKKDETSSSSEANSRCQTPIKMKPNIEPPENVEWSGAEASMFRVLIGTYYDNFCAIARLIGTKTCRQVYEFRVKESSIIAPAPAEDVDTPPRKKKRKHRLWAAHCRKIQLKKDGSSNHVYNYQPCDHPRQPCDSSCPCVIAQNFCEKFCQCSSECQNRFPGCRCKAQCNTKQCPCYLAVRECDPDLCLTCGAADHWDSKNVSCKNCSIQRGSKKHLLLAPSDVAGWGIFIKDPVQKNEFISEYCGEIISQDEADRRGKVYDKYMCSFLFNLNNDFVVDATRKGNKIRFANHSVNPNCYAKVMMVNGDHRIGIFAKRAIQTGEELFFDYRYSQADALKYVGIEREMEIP
T1 sequence (O75530 whole entry partner): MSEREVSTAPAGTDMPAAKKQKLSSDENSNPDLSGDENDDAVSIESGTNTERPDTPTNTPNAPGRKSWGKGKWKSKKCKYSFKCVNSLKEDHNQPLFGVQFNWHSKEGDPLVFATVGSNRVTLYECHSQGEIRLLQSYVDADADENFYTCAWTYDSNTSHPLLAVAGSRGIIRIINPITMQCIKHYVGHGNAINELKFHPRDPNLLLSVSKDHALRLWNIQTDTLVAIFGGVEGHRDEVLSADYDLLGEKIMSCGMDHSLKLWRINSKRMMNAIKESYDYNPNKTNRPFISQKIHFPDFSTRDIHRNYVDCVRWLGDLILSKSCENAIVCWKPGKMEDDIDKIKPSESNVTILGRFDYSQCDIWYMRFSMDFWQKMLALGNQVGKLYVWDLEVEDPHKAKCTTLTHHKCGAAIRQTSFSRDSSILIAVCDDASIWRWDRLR
T1 sequence (Q15022 whole entry partner): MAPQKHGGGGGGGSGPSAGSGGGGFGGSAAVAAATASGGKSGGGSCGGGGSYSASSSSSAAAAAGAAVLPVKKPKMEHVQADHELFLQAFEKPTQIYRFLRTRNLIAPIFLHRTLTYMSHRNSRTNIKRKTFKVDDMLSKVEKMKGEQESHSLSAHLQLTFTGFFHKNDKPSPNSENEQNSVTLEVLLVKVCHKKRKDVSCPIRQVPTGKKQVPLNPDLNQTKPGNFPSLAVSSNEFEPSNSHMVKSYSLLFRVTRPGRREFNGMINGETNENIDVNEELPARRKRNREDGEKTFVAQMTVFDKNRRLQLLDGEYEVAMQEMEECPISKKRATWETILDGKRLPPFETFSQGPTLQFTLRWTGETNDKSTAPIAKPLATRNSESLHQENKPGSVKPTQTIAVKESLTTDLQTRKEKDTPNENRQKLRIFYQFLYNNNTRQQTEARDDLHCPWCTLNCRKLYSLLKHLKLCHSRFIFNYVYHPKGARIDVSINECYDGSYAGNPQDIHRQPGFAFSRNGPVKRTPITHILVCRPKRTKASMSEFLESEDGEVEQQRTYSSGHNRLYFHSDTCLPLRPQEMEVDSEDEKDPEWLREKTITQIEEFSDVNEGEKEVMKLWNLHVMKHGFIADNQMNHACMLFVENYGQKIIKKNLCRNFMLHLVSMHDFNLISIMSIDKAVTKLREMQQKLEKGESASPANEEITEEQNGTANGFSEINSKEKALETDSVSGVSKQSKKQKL
T1 sequence (Q09028 whole entry partner): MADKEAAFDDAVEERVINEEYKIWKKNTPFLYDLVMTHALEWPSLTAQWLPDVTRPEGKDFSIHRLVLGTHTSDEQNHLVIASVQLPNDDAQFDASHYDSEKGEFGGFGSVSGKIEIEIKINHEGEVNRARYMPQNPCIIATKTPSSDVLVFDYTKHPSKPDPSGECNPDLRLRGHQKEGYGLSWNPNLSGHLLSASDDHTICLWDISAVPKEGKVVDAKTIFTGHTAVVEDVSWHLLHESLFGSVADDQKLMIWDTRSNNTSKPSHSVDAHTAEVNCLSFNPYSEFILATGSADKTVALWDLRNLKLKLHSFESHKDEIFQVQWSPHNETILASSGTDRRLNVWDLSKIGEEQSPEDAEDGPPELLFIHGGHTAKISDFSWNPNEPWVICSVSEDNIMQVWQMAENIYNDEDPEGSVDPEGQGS
T1 sequence (Q6ZN18 whole entry partner): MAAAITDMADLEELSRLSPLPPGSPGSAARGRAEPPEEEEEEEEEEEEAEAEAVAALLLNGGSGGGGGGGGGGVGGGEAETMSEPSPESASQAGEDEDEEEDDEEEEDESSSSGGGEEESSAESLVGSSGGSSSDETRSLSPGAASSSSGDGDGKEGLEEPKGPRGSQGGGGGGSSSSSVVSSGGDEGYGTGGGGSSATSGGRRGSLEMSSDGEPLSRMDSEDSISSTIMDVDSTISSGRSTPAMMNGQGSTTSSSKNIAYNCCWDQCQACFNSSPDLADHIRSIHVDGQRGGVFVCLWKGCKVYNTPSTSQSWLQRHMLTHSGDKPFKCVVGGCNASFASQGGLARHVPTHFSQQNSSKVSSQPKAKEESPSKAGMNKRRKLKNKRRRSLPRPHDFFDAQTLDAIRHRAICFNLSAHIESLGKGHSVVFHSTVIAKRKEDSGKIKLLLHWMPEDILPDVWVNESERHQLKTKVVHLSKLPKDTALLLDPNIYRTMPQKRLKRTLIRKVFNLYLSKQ

As usually defined, the IC50 is the midpoint of a concentration-inhibition curve. A lower IC50 goes with higher potency. The compound `CCCc1cc(C)[nH]c(=O)c1CNC(=O)c1cc(-c2ccc(OC)nc2)cc2c1cnn2C(C)C` [Example 23, 1-(1-methylethyl)-N-[(6-methyl-2-oxo-4-propyl-1,2-dihydro-3-pyridinyl)methyl]-6-[6-(methyloxy)-3-pyridinyl]-1H-indazole-4-carboxamide] displayed an IC50 of 8 nM.

In turn, `Cc1cc(C)c(CNC(=O)c2cc(-c3ccc(N4CCNCC4)nc3)cc3c2cnn3C(C)C)c(=O)[nH]1` [Example 10, N-[(4,6-dimethyl-2-oxo-1,2-dihydro-3-pyridinyl)methyl]-1-(1-methylethyl)-6-[6-(1-piperazinyl)-3-pyridinyl]-1H-indazole-4-carboxamide] yielded an IC50 of 13 nM. Compared with the last compound, the IC50 is about 1.6-fold higher.

On to `Cc1cc(Cc2ccccc2)c(CNC(=O)c2cccc3c2cnn3C(C)C)c(=O)[nH]1` [Example 7, 1-(1-methylethyl)-N-{[6-methyl-2-oxo-4-(phenylmethyl)-1,2-dihydro-3-pyridinyl]methyl}-1H-indazole-4-carboxamide], for which half-maximal inhibition (IC50) was put at 40 nM. Against the preceding compound, the IC50 is about 3.1-fold higher.

Take `Cc1cc(C)c(CNC(=O)c2cc(-c3ccc(OCCN(C)C)cc3)cc3c2cnn3C(C)C)c(=O)[nH]1` [Example 8, N-((4,6-dimethyl-2-oxo-1,2-dihydropyridin-3-yl)methyl)-6-(4-(2-(dimethylamino)ethoxy)phenyl)-1-isopropyl-1H-indazole-4-carboxamide]: the IC50 is 10 nM.

In the case of `Cc1cc(C(C)C)c(CNC(=O)c2cc(-c3ccc(N4CCNCC4)nc3)cc3c2cnn3C(C)C)c(=O)[nH]1` [Example 12, 1-isopropyl-N-((4-isopropyl-6-methyl-2-oxo-1,2-dihydropyridin-3-yl)methyl)-6-(6-(piperazin-1-yl)pyridin-3-yl)-1H-indazole-4-carboxamide], 4 nM corresponded to half-maximal inhibition (IC50). This IC50 lies about 2.5-fold lower than the previous one.

The compound `CCCc1cc(C)[nH]c(=O)c1CNC(=O)c1cc(-c2cnc(C)nc2)cc2c1cnn2C(C)C` [Example 17, 1-isopropyl-N-((6-methyl-2-oxo-4-propyl-1,2-dihydropyridin-3-yl)methyl)-6-(2-methylpyrimidin-5-yl)-1H-indazole-4-carboxamide] gave an IC50 of 8 nM. Against the preceding compound, the IC50 is about 2-fold higher.

With `CCc1cc(C)[nH]c(=O)c1CNC(=O)c1cc(-c2ccc(CN(C)C)cc2)cc2c1cnn2C(C)C` [Example 14, 6-(4-((dimethylamino)methyl)phenyl)-N-((4-ethyl-6-methyl-2-oxo-1,2-dihydropyridin-3-yl)methyl)-1-isopropyl-1H-indazole-4-carboxamide], the IC50 stood at 5 nM.
